Experimental data from patent publication US20210198204A1, “PRODRUGS OF KALLIKREIN INHIBITORS” (BioCryst Pharmaceuticals, Inc., priority 2016, published 2021).

Test: Plasma pharmacokinetics of the parent compound after a single oral dose of prodrug
Format: in vivo
Details: single oral dose 10 mg/kg, fasted male Sprague Dawley rats; plasma analyzed for the parent compound; study duration 8 h
Description: Plasma pharmacokinetics of compounds was determined using three male Sprague Dawley rats following a single oral dose administration. All animals were placed in a rat metabolic cage, isolated, and fasted approximately 15 hours prior to dosing. Identifying markers were placed on each animal. Each animal was weighed prior to dose administration. Animals were administered orally with a solution formulation of test compound either in water or a combination of water/propylene glycol, at a dose of 10 mg/kg. Gavage needles were attached to syringes and filled with appropriate amount of test article to be dosed. Blood samples (approximately 500 μL) were collected from three rats at pre-dose (time 0), 0.5, 1, 2, 4, 8, 12 and 24 hr, respectively, depending on study duration. Samples were collected into labeled micro centrifuge tubes containing (heparin solution) as an anticoagulant. Plasma was immediately harvested from the blood by centrifugation at 14,000 rpm for 3 min at 4° C., and stored below −70° C. until bioanalysis. Individual plasma samples were analyzed for the parent compound, 3-[2-(4-carbamimidoyl-phenylcarbamoyl)-5-methoxy-4-vinyl-phenyl]-6-(cyclopropylmethyl-carbamoyl)-pyridine-2-carboxylic acid. As shown in Table-1, the test compounds yielded varying degrees of exposure to the parent compound. The test compounds generally provided for improved bioavailability of the parent compound as compared to dosing of the parent compound in aqueous solutions.

| SMILES | AUC0-last hour (area under the curve) |
| --- | --- |
| C=Cc1cc(C(=O)Nc2ccc(C(=N)NC(=O)OCCC(=O)OC(C)(C)C)cc2)c(-c2ccc(C(=O)NCC3CC3)nc2C(=O)OC(C)OC(=O)OC(C)C)cc1OC (centres unmarked) [Compound 60c, 1-((isopropoxycarbonyl)oxy)ethyl 3-(2-((4-(N-((3-(tert-butoxy)-3-oxopropoxy)carbonyl)carbamimidoyl)phenyl)carbamoyl)-5-methoxy-4-vinylphenyl)-6-((cyclopropylmethyl)carbamoyl)picolinate] | B (B = 1,001-10,000 ng/mL) |
| C=Cc1cc(C(=O)Nc2ccc(C(=N)NC(=O)OC(C)C)cc2)c(-c2ccc(C(=O)NCC3CC3)nc2C(=O)OC(C)OC(=O)OC(C)C)cc1OC (centres unmarked) [Compound 63c, 1-((isopropoxycarbonyl)oxy)ethyl 6-((cyclopropylmethyl)carbamoyl)-3-(2-((4-(N-(isopropoxycarbonyl)carbamimidoyl)phenyl)carbamoyl)-5-methoxy-4-vinylphenyl)picolinate] | C (C >10,000 ng/mL) |
| C=Cc1cc(C(=O)Nc2ccc(C(=N)NC(=O)OC(C)OC(=O)C(C)C)cc2)c(-c2ccc(C(=O)NCC3CC3)nc2C(=O)OCOC(=O)[C@@H](N)C(C)C)cc1OC (stereo partly drawn) [Compound 64b, (((S)-2-amino-3-methylbutanoyl)oxy)methyl 6-((cyclopropylmethyl)carbamoyl)-3-(2-((4-(N-((1-(isobutyryloxy)ethoxy)carbonyl)carbamimidoyl)phenyl)carbamoyl)-5-methoxy-4-vinylphenyl)picolinate] | B (B = 1,001-10,000 ng/mL) |
| C=Cc1cc(C(=O)Nc2ccc(C(=N)NC(=O)OC3COCOC3)cc2)c(-c2ccc(C(=O)NCC3CC3)nc2C(=O)OC(C)OC(=O)C(C)C)cc1OC (centres unmarked) [Compound 65c, 1-(isobutyryloxy)ethyl 3-(2-((4-(N-(((1,3-dioxan-5-yl)oxy)carbonyl)carbamimidoyl)phenyl)carbamoyl)-5-methoxy-4-vinylphenyl)-6-((cyclopropylmethyl)carbamoyl)picolinate] | B (B = 1,001-10,000 ng/mL) |
| C=Cc1cc(C(=O)Nc2ccc(C(=N)NC(=O)OC(COC)COC)cc2)c(-c2ccc(C(=O)NCC3CC3)nc2C(=O)OC(C)OC(=O)C(C)C)cc1OC (centres unmarked) [Compound 66c, 1-(isobutyryloxy)ethyl 6-((cyclopropylmethyl)carbamoyl)-3-(2-((4-(N-(((1,3-dimethoxypropan-2-yl)oxy)carbonyl)carbamimidoyl)phenyl)carbamoyl)-5-methoxy-4-vinylphenyl)picolinate] | B (B = 1,001-10,000 ng/mL) |
| C=Cc1cc(C(=O)Nc2ccc(C(=N)NC(=O)OC3COCOC3)cc2)c(-c2ccc(C(=O)NCC3CC3)nc2C(=O)OC(C)OC(=O)OC(C)C)cc1OC (centres unmarked) [Compound 68a, 1-((isopropoxycarbonyl)oxy)ethyl 3-(2-((4-(N-(((1,3-dioxan-5-yl)oxy)carbonyl)carbamimidoyl)phenyl)carbamoyl)-5-methoxy-4-vinylphenyl)-6-((cyclopropylmethyl)carbamoyl)picolinate] | B (B = 1,001-10,000 ng/mL) |
| C=Cc1cc(C(=O)Nc2ccc(C(=N)NC(=O)OCCCCCC)cc2)c(-c2ccc(C(=O)NCC3CC3)nc2C(=O)OC(C)OC(=O)OC2CCCCC2)cc1OC (centres unmarked) [Compound 70d, 1-(((cyclohexyloxy)carbonyl)oxy)ethyl 6-((cyclopropylmethyl)carbamoyl)-3-(2-((4-(N-((hexyloxy)carbonyl)carbamimidoyl)phenyl)carbamoyl)-5-methoxy-4-vinylphenyl)picolinate] | B (B = 1,001-10,000 ng/mL) |
| C=Cc1cc(C(=O)Nc2ccc(C(=N)NC(=O)OCCC(=O)O)cc2)c(-c2ccc(C(=O)NCC3CC3)nc2C(=O)OC(C)OC(=O)OC(C)C)cc1OC (centres unmarked) [Compound 71a, 3-((((4-(2-(6-((cyclopropylmethyl)carbamoyl)-2-((1-((isopropoxycarbonyl)oxy)ethoxy)carbonyl)pyridin-3-yl)-4-methoxy-5-vinylbenzamido)phenyl)(imino)methyl)carbamoyl)oxy)propanoic acid] | A (A = 0-1,000 ng/mL) |
| C=Cc1cc(C(=O)Nc2ccc(C(=N)NC(=O)OC[C@@H]3C[C@@H](O)CC(=O)O3)cc2)c(-c2ccc(C(=O)NCC3CC3)nc2C(=O)OC(C)OC(=O)C(C)C)cc1OC (stereo partly drawn) [Compound 73d, 1-(isobutyryloxy)ethyl 6-((cyclopropylmethyl)carbamoyl)-3-(2-((4-(N-((((2S,4R)-4-hydroxy-6-oxotetrahydro-2H-pyran-2-yl)methoxy)carbonyl)carbamimidoyl)phenyl)carbamoyl)-5-methoxy-4-vinylphenyl)picolinate] | A (A = 0-1,000 ng/mL) |

Further lines, results first:

| AUC0-last hour (area under the curve) | SMILES |
| --- | --- |
| B (B = 1,001-10,000 ng/mL) | C=Cc1cc(C(=O)Nc2ccc(C(=N)NC(=O)OCCCCCC)cc2)c(-c2ccc(C(=O)NCC3CC3)nc2C(=O)OC(C)OC(=O)[C@@H](N)C(C)C)cc1OC.Cl (stereo partly drawn) [Compound 59b, 1-(((S)-2-amino-3-methylbutanoyl)oxy)ethyl 6-((cyclopropylmethyl)carbamoyl)-3-(2-((4-(N-((hexyloxy)carbonyl)carbamimidoyl)phenyl)carbamoyl)-5-methoxy-4-vinylphenyl)picolinate Hydrochloride] |
| A (A = 0-1,000 ng/mL) | C=Cc1cc(C(=O)Nc2ccc(C(=N)NC(=O)OCCCCCC)cc2)c(-c2ccc(C(=O)NCC3CC3)nc2C(=O)OCOC(=O)[C@@H](N)CCC(=O)O)cc1OC [Compound 61d, (S)-4-amino-5-(((6-((cyclopropylmethyl)carbamoyl)-3-(2-((4-(N-((hexyloxy)carbonyl)carbamimidoyl)phenyl)carbamoyl)-5-methoxy-4-vinylphenyl)picolinoyl)oxy)methoxy)-5-oxopentanoic acid] |
| B (B = 1,001-10,000 ng/mL) | C=Cc1cc(C(=O)Nc2ccc(C(=N)NC(=O)OCCCCCC)cc2)c(-c2ccc(C(=O)NCC3CC3)nc2C(=O)OCOC(=O)[C@@H](N)[C@@H](C)CC)cc1OC [Compound 62d, (((2S,3S)-2-amino-3-methylpentanoyl)oxy)methyl 6-((cyclopropylmethyl)carbamoyl)-3-(2-((4-(N-((hexyloxy)carbonyl)carbamimidoyl)phenyl)carbamoyl)-5-methoxy-4-vinylphenyl)picolinate] |
| A (A = 0-1,000 ng/mL) | C=Cc1cc(C(=O)Nc2ccc(C(=N)NC(=O)OCCCCCC)cc2)c(-c2ccc(C(=O)NCC3CC3)nc2C(=O)OCOC(=O)[C@@H](N)Cc2ccccc2)cc1OC [Compound 69d, (S)-((2-amino-3-phenylpropanoyl)oxy)methyl 6-((cyclopropylmethyl)carbamoyl)-3-(2-((4-(N-((hexyloxy)carbonyl)carbamimidoyl)phenyl)carbamoyl)-5-methoxy-4-vinylphenyl)picolinate] |
| B (B = 1,001-10,000 ng/mL) | C=Cc1cc(C(=O)Nc2ccc(C(=N)NC(=O)OCCCCCC)cc2)c(-c2ccc(C(=O)NCC3CC3)nc2C(=O)OCOC(=O)OC(C)C)cc1OC [Compound 72a, ((isopropoxycarbonyl)oxy)methyl 6-((cyclopropylmethyl)carbamoyl)-3-(2-((4-(N-((hexyloxy)carbonyl)carbamimidoyl)phenyl)carbamoyl)-5-methoxy-4-vinylphenyl)picolinate] |
